Laboratory results from US9580416B2, “Inhibitors of Bruton's tyrosine kinase” (PHARMACYCLICS LLC, priority 2014, dated 2017).

Experiments:
Type in all cases: biochemical
Lck = Lck (Homo sapiens, UniProt P06239); assay: Lck kinase activity, TR-FRET assay; settings: read-out: LCK (IC50)
Description: (§1) Btk kinase activity is determined using a time-resolved fluorescence resonance energy transfer (TR-FRET) methodology. Measurements are performed in a reaction volume of 50 μL using 96-well assay plates. Kinase enzyme, inhibitor, ATP (at the Km for the kinase), and 1 […] (Biotin-AVLESEEELYSSARQ-NH2) are incubated in a reaction buffer composed of 20 mM Tris, 50 mM NaCl, MgCl2 (5-25 mM depending on the kinase), MnCl2 (0-10 mM), 1 mM DTT, 0.1 mM EDTA, 0.01% bovine serum albumin, 0.005% Tween-20, and 10% DMSO at pH 7.4 for one hour. The reaction is quenched by the addition of 1.2 equivalents of EDTA (relative to divalent cation) in 25 μL of 1× Lance buffer (Perkin-Elmer). Streptavidin-APC (Perkin-Elmer) and Eu-labeled p-Tyr100 antibody (Perkin-Elmer) in 1× Lance buffer are added in a 25 μL volume to give final concentrations of 100 nM and 2.5 nM, respectively, and the mixture is allowed to incubate for one hour. The TR-FRET signal is measured on a multimode plate reader with an excitation wavelength (λEx) of 330 nm and detection wavelengths (λEm) of 615 and 665 nm. Activity is determined by the ratio of the fluorescence at 665 nm to that at 615 nm. For each compound, enzyme activity is measured at various concentrations of compound. Negative control reactions are performed in the absence of inhibitor in replicates of six, and two no-enzyme controls are used to determine baseline fluorescence levels. Inhibition constants, Ki(app), ware obtained using the program BatchKi (Kuzmic et al. (2000), Anal. Biochem. 286:45-50). IC50s are obtained according to the equation: IC50={Ki(app)/(1+[ATP]/Km^ATP)}+[E]total/2;
(§2) For all kinases, [ATP]=Km^ATP, [Btk]total=0.5 nM and [Lck]total=6 nM.

EGFR = EGFR (Homo sapiens, UniProt P00533); assay: Inhibition of a panel of kinases, in vitro HotSpot kinase assay: EGFR
Sequence of EGFR (P00533 25-1210): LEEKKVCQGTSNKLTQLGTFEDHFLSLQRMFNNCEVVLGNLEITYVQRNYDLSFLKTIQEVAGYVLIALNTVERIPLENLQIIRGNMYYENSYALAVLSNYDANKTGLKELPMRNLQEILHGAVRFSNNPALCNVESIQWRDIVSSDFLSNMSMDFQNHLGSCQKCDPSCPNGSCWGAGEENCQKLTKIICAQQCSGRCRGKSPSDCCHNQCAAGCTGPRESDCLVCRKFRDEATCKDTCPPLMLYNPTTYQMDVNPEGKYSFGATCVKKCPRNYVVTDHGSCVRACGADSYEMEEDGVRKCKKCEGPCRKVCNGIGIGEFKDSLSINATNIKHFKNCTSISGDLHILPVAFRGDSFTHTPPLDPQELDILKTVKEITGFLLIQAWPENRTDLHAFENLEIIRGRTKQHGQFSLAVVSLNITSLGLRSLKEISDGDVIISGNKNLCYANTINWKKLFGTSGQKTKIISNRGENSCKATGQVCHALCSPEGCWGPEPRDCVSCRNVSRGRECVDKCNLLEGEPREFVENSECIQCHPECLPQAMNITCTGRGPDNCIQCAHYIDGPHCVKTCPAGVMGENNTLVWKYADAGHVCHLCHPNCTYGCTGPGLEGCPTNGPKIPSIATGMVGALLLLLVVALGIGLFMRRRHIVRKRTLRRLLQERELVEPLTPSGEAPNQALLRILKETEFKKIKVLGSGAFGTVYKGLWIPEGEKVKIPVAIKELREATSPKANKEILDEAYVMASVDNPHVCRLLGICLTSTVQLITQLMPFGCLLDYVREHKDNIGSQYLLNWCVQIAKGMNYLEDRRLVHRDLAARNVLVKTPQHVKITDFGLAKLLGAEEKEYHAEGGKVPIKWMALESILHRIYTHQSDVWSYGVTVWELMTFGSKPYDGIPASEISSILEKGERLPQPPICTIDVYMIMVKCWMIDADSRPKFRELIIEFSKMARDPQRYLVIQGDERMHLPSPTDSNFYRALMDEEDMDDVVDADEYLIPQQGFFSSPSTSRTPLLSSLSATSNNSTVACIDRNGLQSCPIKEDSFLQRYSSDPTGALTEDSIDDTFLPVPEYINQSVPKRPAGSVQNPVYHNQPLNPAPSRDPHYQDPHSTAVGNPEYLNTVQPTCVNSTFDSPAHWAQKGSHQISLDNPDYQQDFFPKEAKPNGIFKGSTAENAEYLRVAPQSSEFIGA
Description: The degree of inhibition of a panel of kinases is determined using the in vitro HotSpot kinase assay (purified enzymes, ^33P-ATP, an appropriate substrate and 1 uM ATP).

Btk = Btk (Homo sapiens, UniProt Q06187); assay: Btk kinase activity, TR-FRET assay; settings: read-out: Btk (IC50)
Sequence of Btk (Q06187 whole entry): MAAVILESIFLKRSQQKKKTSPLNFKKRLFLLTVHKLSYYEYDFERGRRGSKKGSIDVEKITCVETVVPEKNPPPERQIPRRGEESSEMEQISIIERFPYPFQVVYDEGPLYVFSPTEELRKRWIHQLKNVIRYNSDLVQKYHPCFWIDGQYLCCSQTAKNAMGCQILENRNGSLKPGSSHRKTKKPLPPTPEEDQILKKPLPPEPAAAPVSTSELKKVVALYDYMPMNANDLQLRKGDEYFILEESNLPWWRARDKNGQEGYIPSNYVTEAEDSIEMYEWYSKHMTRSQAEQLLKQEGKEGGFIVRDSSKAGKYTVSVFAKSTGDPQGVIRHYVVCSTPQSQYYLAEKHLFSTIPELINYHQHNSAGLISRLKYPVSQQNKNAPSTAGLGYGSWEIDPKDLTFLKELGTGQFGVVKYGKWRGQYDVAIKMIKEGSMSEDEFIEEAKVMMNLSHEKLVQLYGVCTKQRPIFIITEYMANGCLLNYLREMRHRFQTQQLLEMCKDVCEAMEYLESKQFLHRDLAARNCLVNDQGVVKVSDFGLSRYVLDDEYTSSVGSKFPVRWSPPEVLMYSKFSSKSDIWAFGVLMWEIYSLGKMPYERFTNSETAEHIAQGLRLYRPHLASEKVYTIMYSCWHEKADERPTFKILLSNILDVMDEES
Description: as §1, §2

Sequence of Lck (P06239 whole entry, species assumed): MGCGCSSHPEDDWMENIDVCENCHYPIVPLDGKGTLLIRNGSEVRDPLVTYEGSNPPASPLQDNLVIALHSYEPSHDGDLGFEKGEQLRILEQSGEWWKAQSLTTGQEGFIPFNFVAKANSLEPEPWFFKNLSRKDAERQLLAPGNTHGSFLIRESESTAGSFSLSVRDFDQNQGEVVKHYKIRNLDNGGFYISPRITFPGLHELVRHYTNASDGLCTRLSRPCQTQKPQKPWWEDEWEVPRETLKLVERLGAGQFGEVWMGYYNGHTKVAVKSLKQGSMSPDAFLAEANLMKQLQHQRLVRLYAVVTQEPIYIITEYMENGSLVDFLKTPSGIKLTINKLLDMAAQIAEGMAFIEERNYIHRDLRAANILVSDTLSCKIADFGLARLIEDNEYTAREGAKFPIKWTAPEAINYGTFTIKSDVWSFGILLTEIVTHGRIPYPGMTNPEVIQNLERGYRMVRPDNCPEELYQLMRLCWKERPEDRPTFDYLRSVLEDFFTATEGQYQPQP

Row | SMILES | IC50 (Lck) | IC50 (EGFR) | IC50 (Btk)
1 | N#C/C(=C\c1ccccc1)C(=O)N1CC[C@@H](Nc2n[nH]c3nccc(Oc4ccc(Oc5ccccc5)cc4)c23)C1 [compound 19, (2E)-2-[(E)-(3R)-3-{[4-(4-phenoxyphenoxy)-1H-pyrazolo[3,4-b]pyridin-3-yl]amino}pyrrolidine-1-carbonyl]-3-phenylprop-2-enenitrile] | 100 to 1000 nM | 100 to 1000 nM | < 100 nM
2 | CN(C)C/C=C/C(=O)N1CC[C@@H](Nc2n[nH]c3nccc(Oc4cccc(Nc5ccncn5)c4)c23)C1 [compound 20, (2E)-4-(dimethylamino)-1-[(3R)-3-[(4-{3-[(pyrimidin-4-yl)amino]phenoxy}-1H-pyrazolo[3,4-b]pyridin-3-yl)amino]pyrrolidin-1-yl]but-2-en-1-one] | > 10000 nM | 1000 to 10000 nM | > 10000 nM
3 | CN(C/C=C/C(=O)N1CC[C@@H](Oc2n[nH]c3nccc(Oc4ccc(Oc5ccccc5)cc4)c23)C1)C1CC1 [compound 22, (2E)-4-[cyclopropyl(methyl)amino]-1-[(3R)-3-{[4-(4-phenoxyphenoxy)-1H-pyrazolo[3,4-b]pyridin-3-yl]oxy}pyrrolidin-1-yl]but-2-en-1-one] | < 100 nM | < 100 nM | < 100 nM
4 | CN(C/C=C/C(=O)N1CC[C@@H](Nc2n[nH]c3nccc(Nc4ccc(Oc5ccccc5)cc4)c23)C1)C1CC1 [compound 23, (2E)-4-[cyclopropyl(methyl)amino]-1-[(3R)-3-({4-[(4-phenoxyphenyl)amino]-1H-pyrazolo[3,4-b]pyridin-3-yl}amino)pyrrolidin-1-yl]but-2-en-1-one] | < 100 nM | 100 to 1000 nM | < 100 nM
5 | CN(C)C/C=C/C(=O)N1CC[C@@H](Nc2n[nH]c3nccc(O[C@H]4CCN(c5ccccc5)C4)c23)C1 [compound 24, (2E)-4-(dimethylamino)-1-[(3R)-3-[(4-{[(3S)-1-phenylpyrrolidin-3-yl]oxy}-1H-pyrazolo[3,4-b]pyridin-3-yl)amino]pyrrolidin-1-yl]but-2-en-1-one] | 1000 to 10000 nM | > 10000 nM | 100 to 1000 nM
6 | CN(C)C/C=C/C(=O)N1CC[C@@H](Nc2n[nH]c3nccc(Oc4ccc(Oc5ccccc5)cc4S(N)(=O)=O)c23)C1 [compound 25, 2-[(3-{[(3R)-1-[(2E)-4-(dimethylamino)but-2-enoyl]pyrrolidin-3-yl]amino}-1H-pyrazolo[3,4-b]pyridin-4-yl)oxy]-5-phenoxybenzene-1-sulfonamide] | 100 to 1000 nM | 100 to 1000 nM | 100 to 1000 nM
7 | N#C/C(=C\c1ccccn1)C(=O)N1CC[C@@H](Nc2n[nH]c3nccc(Oc4ccc(Oc5ccccc5)cc4)c23)C1 [compound 26, (2E)-2-[(E)-(3R)-3-{[4-(4-phenoxyphenoxy)-1H-pyrazolo[3,4-b]pyridin-3-yl]amino}pyrrolidine-1-carbonyl]-3-(pyridin-2-yl)prop-2-enenitrile] | 100 to 1000 nM | 100 to 1000 nM | < 100 nM
8 | N#C/C(=C\C1CCC1)C(=O)N1CC[C@@H](Nc2n[nH]c3nccc(Oc4ccc(Oc5ccccc5)cc4)c23)C1 [compound 27, (2E)-3-cyclobutyl-2-[(E)-(3R)-3-{[4-(4-phenoxyphenoxy)-1H-pyrazolo[3,4-b]pyridin-3-yl]amino}pyrrolidine-1-carbonyl]prop-2-enenitrile] | 100 to 1000 nM | 100 to 1000 nM | < 100 nM
9 | N#C/C(=C\c1ncc[nH]1)C(=O)N1CC[C@@H](Nc2n[nH]c3nccc(Oc4ccc(Oc5ccccc5)cc4)c23)C1 [compound 28, (2E)-3-(1H-imidazol-2-yl)-2-[(E)-(3R)-3-{[4-(4-phenoxyphenoxy)-1H-pyrazolo[3,4-b]pyridin-3-yl]amino}pyrrolidine-1-carbonyl]prop-2-enentrile] | 100 to 1000 nM | < 100 nM | < 100 nM
10 | CNC(=O)/C(C#N)=C\c1cccc(Nc2n[nH]c3nccc(Oc4ccc(Oc5ccccc5)cc4)c23)c1 [compound 29, (2Z)-2-cyano-N-methyl-3-(3-{[4-(4-phenoxyphenoxy)-1H-pyrazolo[3,4-b]pyridin-3-yl]amino}phenyl)prop-2-enamide] | 100 to 1000 nM | < 100 nM | < 100 nM
11 | N#Cc1cc(Nc2n[nH]c3nccc(Oc4ccc(Oc5ccccc5)cc4)c23)ccn1 [compound 30, 4-{[4-(4-phenoxyphenoxy)-1H-pyrazolo[3,4-b]pyridin-3-yl]amino}pyridine-2-carbonitrile] | 100 to 1000 nM | 100 to 1000 nM | 1000 to 10000 nM
12 | CNC(=O)/C(F)=C/c1cccc(Nc2n[nH]c3nccc(Oc4ccc(Oc5ccccc5)cc4)c23)c1 [compound 31, (2Z)-2-fluoro-N-methyl-3-(3-{[4-(4-phenoxyphenoxy)-1H-pyrazolo[3,4-b]pyridin-3-yl]amino}phenyl)prop-2-enamide] | 100 to 1000 nM | 100 to 1000 nM | 100 to 1000 nM
13 | CN(C)C/C=C/C(=O)N1CCCC(c2n[nH]c3nccc(Oc4ccc(Oc5ccccc5)cc4)c23)C1 (stereo not drawn) [compound 32, (2E)-4-(dimethylamino)-1-{3-[4-(4-phenoxyphenoxy)-1H-pyrazolo[3,4-b]pyridin-3-yl]piperidin-1-yl}but-2-en-1-one] | < 100 nM | 100 to 1000 nM | < 100 nM
14 | CN(C/C=C/C(=O)N1CC[C@@H](Nc2n[nH]c3nccc(Oc4ccc(C(=O)Nc5cc(C(F)(F)F)ccn5)cc4)c23)C1)C1CC1 [compound 33, 4-[(3-{[(3R)-1-[(2E)-4-[cyclopropyl(methyl)amino]but-2-enoyl]pyrrolidin-3-yl]amino}-1H-pyrazolo[3,4-b]pyridin-4-yl)oxy]-N-[4-(trifluoromethyl)pyridin-2-yl]benzamide] | 100 to 1000 nM | 1000 to 10000 nM | < 100 nM
15 | CN(C)C/C=C/C(=O)N1CC[C@@H](Nc2n[nH]c3nccc(Oc4ccc(Oc5ccccc5)cc4C#N)c23)C1 [compound 34, 2-[(3-{[(3R)-1-[(2E)-4-(dimethylamino)but-2-enoyl]pyrrolidin-3-yl]amino}-1H-pyrazolo[3,4-b]pyridin-4-yl)oxy]-5-phenoxybenzonitrile] | 100 to 1000 nM | 1000 to 10000 nM | < 100 nM
16 | CN(C/C=C/C(=O)N1CC[C@@H](Nc2n[nH]c3nccc(Oc4ccc(Oc5ccccc5)cc4C#N)c23)C1)C1CC1 [compound 35, 2-[(3-{[(3R)-1-[(2E)-4-[cyclopropyl(methyl)amino]but-2-enoyl]pyrrolidin-3-yl]amino}-1H-pyrazolo[3,4-b]pyridin-4-yl)oxy]-5-phenoxybenzonitrile] | 1000 to 10000 nM | > 10000 nM | 100 to 1000 nM
17 | CN(C/C=C/C(=O)N1CCC[C@H]1CNc1n[nH]c2nccc(Oc3ccc(Oc4ccccc4)cc3)c12)C1CC1 [compound 36] | < 100 nM | 1000 to 10000 nM | < 100 nM
18 | CN(C/C=C/C(=O)N1CCCC[C@H]1CNc1n[nH]c2nccc(Oc3ccc(Oc4ccccc4)cc3)c12)C1CC1 [compound 37] | 100 to 1000 nM | 1000 to 10000 nM | < 100 nM
19 | CN(C(=O)/C=C/CN(C)C1CC1)c1cccc(Nc2n[nH]c3nccc(Oc4ccc(Oc5ccccc5)cc4)c23)c1 [compound 38] | 100 to 1000 nM | 100 to 1000 nM | < 100 nM
20 | CN(C)C/C=C/C(=O)N1CC[C@@H](Nc2n[nH]c3ncnc(Oc4ccc(Oc5ccccc5)cc4)c23)C1 [compound 39] | 100 to 1000 nM | < 100 nM | < 100 nM
21 | CN(C/C=C/C(=O)N1CC[C@@H](Nc2n[nH]c3nccc(Oc4ccc(OCc5cnn[nH]5)cc4)c23)C1)C1CC1 [compound 40] | 100 to 1000 nM | < 100 nM | < 100 nM
